Results: patent publication US9062043B2, “Fused tricyclic compounds as serine-threonine protein kinase and PARP modulators” (SENHWA BIOSCIENCES, INC., priority 2006, dated 2015)

Legend:
H1299 = test: Cell proliferation assay, Alamar Blue, H1299; assay type: cell-based; conditions: Homo sapiens, NCI-H1299; Table 16
Description: (§1) c. Plate 4,000-5,000 cells per well in 100 μl of medium and seed into a 96-well plate according to the following plate layout. Add cell culture medium only to wells B10 to B12. Wells B1 to B9 have cells but no compound added.
(§2) d. Add 100 μl of 2× drug dilution to each well in a concentration shown in the plate layout above. At the same time, add 100 μl of media into the control wells (wells B10 to B12). Total volume is 200 μl/well.
(§3) e. Incubate four (4) days at 37° C., 5% CO2 in a humidified incubator.
(§4) f. Add 20 μl Alamar Blue reagent to each well.
(§5) g. Incubate for four (4) hours at 37° C., 5% CO2 in a humidified incubator.
(§6) h. Record fluorescence at an excitation wavelength of 544 nm and emission wavelength of 590 nm using a microplate reader.
(§7) In the assays, cells are cultured with a test compound for approximately four days, the dye then is added to the cells and fluorescence of […] dye is detected after approximately four hours. Different types of cells can be utilized in the assays (e.g., HCT-116 human colorectal carcinoma cells, PC-3 human prostatic cancer cells and MiaPaca human pancreatic carcinoma cells). Anti-proliferative effects of representative compounds are provided hereafter.

Hs578T = test: Cell proliferation assay, Alamar Blue, Hs578T; assay type: cell-based; conditions: Homo sapiens, Hs-578T; Table 16
[1] = tested on: MiaPaca human pancreatic carcinoma cells; test: Cell proliferation assay, Alamar Blue, MiaPaca; assay type: cell-based; conditions: MIA PaCa-2, Table 16
Description: (§8) A representative cell-proliferation assay protocol using Alamar Blue dye (stored at 4° C., use 20 ul per well) is described hereafter.
as §1, §2, §3, §4, §5, §6, §7

A549 = test: Cell proliferation assay, Alamar Blue, A549; assay type: cell-based; conditions: Homo sapiens, Table 16
Description: as §1, §2, §3, §4, §5, §6, §7

[2] = tested on: PC-3 human prostatic cancer cells; test: Cell proliferation assay, Alamar Blue, PC-3; assay type: cell-based; conditions: Table 16, read-out: IC50 PC3
Description: as §8, §1, §2, §3, §4, §5, §6, §7

[3] = tested on: HCT-116 human colorectal carcinoma cells; test: Cell proliferation assay, Alamar Blue, HCT-116; assay type: cell-based; conditions: HCT-116, Table 16, second HCT-116 column;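 further: cells exposed to compound for about 4 days, then Alamar Blue added and fluorescence read after about 4 h, medium-only wells as control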
HT29 = test: Cell proliferation assay, Alamar Blue, HT29; assay type: cell-based; conditions: Homo sapiens, HT-29; Table 16
Description: as §1, §2, §3, §4, §5, §6, §7

Jurkat = test: Cell proliferation assay, Alamar Blue, Jurkat; assay type: cell-based; conditions: Homo sapiens, Table 16;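 further: cells exposed to compound for about 4 days at 37 °C, then Alamar Blue added and fluorescence read after about 4 h, controls given medium without drug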
MiaPaca xenografts = test: Tumor suppression in MiaPaca xenograft mice; assay type: in vivo
PC-3 xenografts = test: Tumor suppression in PC-3 xenograft animals; assay type: in vivo, mice; conditions: oral 150 mg/kg
Description: (§9) Animals were handled under laminar-flow hoods.
(§10) Gemar™ administered at a dose of 80 mg/kg IP Q3D was used as a positive control.

[4] = Pharmacokinetics in ICR mice after IV and PO dose; assay type: in vivo
MCF-7 xenografts = test: Tumor suppression in MCF-7 xenograft animals; assay type: in vivo, mice; conditions: oral 100 mg/kg
Description: as §9, §10

caspase-3 = test: Caspase-3 staining in tumors as biomarker; assay type: in vivo, mice; conditions: 60 mg/kg IV
Description: Caspase staining also was assessed as a biomarker for compound A1 treatment of tumors.

MDAMB231 = test: Cell proliferation assay, Alamar Blue, MDAMB231; assay type: cell-based; conditions: Homo sapiens, MDA-MB-231; MDAMB231 cells, anti-proliferative
Description: as §8, §1, §2, §3, §4, §5, §6, §7

H460 = test: Cell proliferation assay, Alamar Blue, H460; assay type: cell-based; conditions: Homo sapiens, NCI-H460; H460 cells, anti-proliferative
Description: as §8, §1, §2, §3, §4, §5, §6, §7

Raji = test: Cell proliferation assay, Alamar Blue, Raji; assay type: cell-based; conditions: Homo sapiens; Raji cells, anti-proliferative
Description: as §8, §1, §2, §3, §4, §5, §6, §7

HL-60 = test: Cell proliferation assay, Alamar Blue, HL-60; assay type: cell-based; conditions: Homo sapiens; HL-60 cells, anti-proliferative
Description: as §8, §1, §2, §3, §4, §5, §6, §7

A375 = test: Cell proliferation assay, Alamar Blue, A375; assay type: cell-based; conditions: Homo sapiens, A-375; A375 cells, anti-proliferative
Description: as §8, §1, §2, §3, §4, §5, §6, §7

PanC1 = test: Cell proliferation assay, Alamar Blue, PanC1; assay type: cell-based; conditions: Homo sapiens, PANC-1; PanC1 cells, anti-proliferative; read-out: IC50 (uM) PanC1
Description: as §8, §1, §2, §3, §4, §5, §6, §7

SK-OV-3 = test: Cell proliferation assay, Alamar Blue, SK-OV-3; assay type: cell-based; conditions: Homo sapiens; SK-OV-3 cells, anti-proliferative
Description: as §8, §1, §2, §3, §4, §5, §6, §7

LNCaP = test: Cell proliferation assay, Alamar Blue, LNCaP; assay type: cell-based; conditions: Homo sapiens; LNCaP cells, anti-proliferative
Description: as §8, §1, §2, §3, §4, §5, §6, §7

COLO 205 = test: Cell proliferation assay, Alamar Blue, COLO 205; assay type: cell-based; conditions: Homo sapiens; COLO 205 cells, anti-proliferative
Description: as §8, §1, §2, §3, §4, §5, §6, §7

MCF-7 = test: Cell proliferation assay, Alamar Blue, MCF-7; assay type: cell-based; conditions: Homo sapiens, MCF7; MCF-7 cells, anti-proliferative
Description: as §8, §1, §2, §3, §4, §5, §6, §7

BxPC3 = test: Cell proliferation assay, Alamar Blue, BxPC3; assay type: cell-based; conditions: Homo sapiens, BXPC-3; Table 16
Description: as §1, §2, §3, §4, §5, §6, §7

SMILES | IC50 (H1299) | IC50 [1] | IC50 (A549) | IC50 [2] | IC50 [3] | IC50 (HT29) | IC50 (Jurkat) | IC50 (Hs578T) | further results
NS(=O)(=O)c1cccc(Nc2nc3cc(C(=O)O)ccc3c3sccc23)c1 | 9.9 µM | > 10 µM | 7.6 µM | 44.9 µM | > 10 µM | 4.6 µM |  | 11 µM | 
O=C(O)c1ccc2c(c1)nc(Nc1cccc(Cl)c1)c1ccsc12 | 14.3 µM | 9.82 µM | 11.7 µM | 16.7 µM |  | 5.36 µM |  | 9.7 µM | 
O=C(O)c1ccc2c(c1)nc(Nc1ccccc1)c1ncsc12 | 38.8 µM | > 10 µM | > 50 µM | > 50 µM | > 10 µM | > 50 µM | 7.43 µM | > 50 µM | 
O=C(O)c1ccc2c(c1)nc(Nc1cccc(C(F)(F)F)c1)c1nc(NC3CC3)ncc12 [compound A3] |  |  |  |  |  |  |  |  | Tumor progression inhibition (MiaPaca xenografts; MiaPaca xenografts, IV administration): significantly inhibited tumor progression
O=C(O)c1ccc2c(c1)nc(Nc1cccc(Cl)c1)c1ccncc12 [compound A1] |  |  |  |  |  |  |  |  | Tumor growth inhibition (PC-3 xenografts): significantly inhibited tumor growth; CLs ([4]; IV 5 mg/kg): 25 mL/min/kg; Cp0-exp ([4]; IV 5 mg/kg): 13201 ng/mL; Kel ([4]; IV 5 mg/kg): 0.1586 h⁻¹; F(0-8 h) ([4]; PO 25 mg/kg): 10.9%; F(0-inf h) ([4]; PO 25 mg/kg): 18.7%; Kel ([4]; PO 25 mg/kg): 0.1076 h⁻¹; AUC(0-inf) ([4]; mouse, plasma, IV 5 mg/kg): 3360 ng·h/mL; AUC(0-t) ([4]; mouse, plasma, IV 5 mg/kg): 3340 ng·h/mL; Vd ([4]; mouse, plasma, IV 5 mg/kg): 9.4 L/kg; AUC(0-inf) ([4]; mouse, plasma, PO 25 mg/kg): 3150 ng·h/mL; AUC(0-t) ([4]; mouse, plasma, PO 25 mg/kg): 2920 ng·h/mL; Cmax ([4]; mouse, plasma, PO 25 mg/kg): 343 ng/mL; Tmax ([4]; mouse, plasma, PO 25 mg/kg): 15 min; Tumor growth inhibition (MCF-7 xenografts): significantly inhibited tumor growth; Tumor growth inhibition (MiaPaca xenografts; MiaPaca xenograft, oral 100 mg/kg QDx8 then 200 mg/kg QDx5, relative to untreated control): significantly inhibited tumor growth; Caspase-3 cell staining levels vs untreated control cells (caspase-3): four-fold greater
O=C(O)c1ccc2c(c1)nc(Nc1cc(Cl)cc(Cl)c1)c1ccsc12 [drawing 991] |  |  |  |  |  |  |  |  | IC50 (MDAMB231): 3.89 µM; IC50 (H460): 12.3 µM; IC50 (Raji): 17.7 µM; IC50 (HL-60): 1.94 µM; IC50 (A375): 19.9 µM; IC50 (PanC1): 20.3 µM; IC50 (SK-OV-3): 11.7 µM; IC50 (LNCaP): 6.23 µM; IC50 (COLO 205): 1.01 µM; IC50 (MCF-7): 13.7 µM
O=C(O)c1ccc2c(c1)nc(Nc1cc(Cl)ccc1F)c1ccsc12 | 17.5 µM | > 10 µM | 31.1 µM | > 50 µM | > 10 µM | > 50 µM |  |  | 
O=C(O)c1ccc2c(c1)nc(Nc1cc(F)cc(F)c1)c1ccsc12 | 8.14 µM | 6.36 µM | 7.45 µM | 6.11 µM | > 10 µM | 2 µM | 5.86 µM | 7.31 µM | 

Second part, led by results:

IC50 (H1299) | IC50 [1] | IC50 (A549) | IC50 [2] | IC50 [3] | IC50 (HT29) | IC50 (Jurkat) | SMILES | IC50 (Hs578T) | further results
16.9 µM | > 10 µM | 27.7 µM | 17.8 µM |  | 23.1 µM |  | C#Cc1cccc(Nc2nc3cc(C(=O)O)ccc3c3sccc23)c1 [drawing 938] | 9.96 µM | 
12.7 µM | 3.18 µM | 4.49 µM | 5.31 µM | > 10 µM | 3.22 µM | 6.97 µM | O=C(NC1CC1)c1cccc(Nc2nc3cc(-c4nnn[nH]4)ccc3c3sccc23)c1 | 7.79 µM | 
19.1 µM | > 10 µM | 16 µM | > 50 µM |  | 16.6 µM |  | N#Cc1cccc(Nc2nc3cc(C(=O)O)ccc3c3sccc23)c1 | 12.3 µM | 
0.97 µM | 14.6 µM | 13.2 µM | 32.2 µM | 8.76 µM | 13 µM | 4.31 µM | O=C(O)c1ccc2c(c1)nc(Nc1cc(Cl)cc(Cl)c1)c1ccsc12 [drawing 984] | 7.67 µM | IC50 (BxPC3): 2.1 µM
8.78 µM | 7.28 µM | 6.23 µM | 2.66 µM | > 10 µM | 1.89 µM | 5.93 µM | O=C(O)c1ccc2c(c1)nc(Nc1cccc(F)c1)c1ccsc12 | 8.67 µM | 
41.8 µM | > 10 µM | > 50 µM | > 50 µM | 15 µM | > 50 µM | 15.2 µM | O=C(O)c1ccc2c(c1)nc(Nc1ccc(F)c(Cl)c1)c1ncsc12 | 28.2 µM | 
13.8 µM | > 10 µM | 6.94 µM | 26.7 µM | > 10 µM | 3.56 µM | 8.69 µM | CNC(=O)c1cccc(Nc2nc3cc(C(=O)O)ccc3c3sccc23)c1 | 9.07 µM | 
18.5 µM | > 10 µM | > 50 µM | > 50 µM | > 10 µM | > 50 µM |  | COc1cccc(Nc2nc3cc(C(=O)O)ccc3c3scnc23)c1 | > 50 µM | 
21.6 µM | > 10 µM | > 50 µM | > 50 µM | 15 µM | > 50 µM | 40.2 µM | O=C(O)c1ccc2c(c1)nc(Nc1cccc(F)c1)c1ncsc12 | > 50 µM | 
